ChEMBL document CHEMBL1201862, “PubChem BioAssay data set” (2004)
Structures can show the parent of a compound that is named as a salt.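 Tested at 5 concentrations; 48 h exposure; 96-well plates; endpoints linearly interpolated, else capped at highest concentration. GI50: concentration for 50% inhibition of growth.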 Active and inactive are the calls of the source. No stated cut-off is given here; in the data, active = GI50 up to about 1.1 µM and inactive = higher.

Key:
Assay in all cases: NCI anticancer screen, dose series, 48 h
NCI/ADR-RES = test system: NCI/ADR-RES
SK-MEL-5 = test system: SK-MEL-5
U-251 = test system: U-251
NCI-H23 = test system: NCI-H23
MCF7 = test system: MCF7
SK-MEL-2 = test system: SK-MEL-2
HCT-15 = test system: HCT-15
T47D = test system: T47D
K562 = test system: K562
NCI-H460 = test system: NCI-H460
SF-295 = test system: SF-295
CCRF-CEM = test system: CCRF-CEM
SR = test system: SR
UACC-62 = test system: UACC-62
SK-MEL-28 = test system: SK-MEL-28
IGROV-1 = test system: IGROV-1
UACC-257 = test system: UACC-257
MDA-MB-231 = test system: MDA-MB-231
KM12 = test system: KM12
UO-31 = test system: UO-31

Structure (SMILES)	GI50 (NCI/ADR-RES)	GI50 (SK-MEL-5)	GI50 (U-251)	GI50 (NCI-H23)	GI50 (MCF7)	GI50 (SK-MEL-2)	GI50 (HCT-15) [µM]	GI50 (T47D)	GI50 (K562)	GI50 (NCI-H460)	GI50 (SF-295)	GI50 (CCRF-CEM)	GI50 (SR)	GI50 (UACC-62)	GI50 (SK-MEL-28)	GI50 (IGROV-1)	GI50 (UACC-257)	GI50 (MDA-MB-231)	GI50 (KM12)	GI50 (UO-31)
C#CCOCCCC(=O)O	> 100 µM (inactive)	> 100 µM (inactive)	> 100 µM (inactive)	> 100 µM (inactive)	> 100 µM (inactive)	> 100 µM (inactive)	> 100	> 100 µM (inactive)	> 100 µM (inactive)	> 100 µM (inactive)	> 100 µM (inactive)	> 100 µM (inactive)	> 100 µM (inactive)	> 100 µM (inactive)	> 100 µM (inactive)	> 100 µM (inactive)	> 100 µM (inactive)	> 100 µM (inactive)	–	–
NCCN1C(=O)c2ccccc2C1(O)c1ccc(Cl)cc1 (centres undefined)	37.4 µM (inactive)	16.4 µM (inactive)	16.1 µM (inactive)	36.8 µM (inactive)	16.7 µM (inactive)	16.5 µM (inactive)	37.3	19.4 µM (inactive)	19.7 µM (inactive)	16.4 µM (inactive)	21.9 µM (inactive)	25.4 µM (inactive)	17.9 µM (inactive)	16.4 µM (inactive)	17.6 µM (inactive)	19 µM (inactive)	17.1 µM (inactive)	15.5 µM (inactive)	16.9 µM (inactive)	–
O=C1OCC2=C1C(c1ccc(Cl)cc1)c1cc3c(cc1O2)OCO3 (centres undefined)	2.64 µM (inactive)	3.76 µM (inactive)	–	6.9 µM (inactive)	3.16 µM (inactive)	3.2 µM (inactive)	2.83	4.3 µM (inactive)	1.82 µM (inactive)	3.34 µM (inactive)	2.88 µM (inactive)	2.52 µM (inactive)	3.03 µM (inactive)	4.36 µM (inactive)	6.21 µM (inactive)	3.56 µM (inactive)	> 21.8 µM (inactive)	> 24.3 µM (inactive)	3.45 µM (inactive)	10.1 µM (inactive)
CC(=O)OCC1OC(n2cnc3nc(Br)[nH]c(=O)c32)C(OC(C)=O)C1OC(C)=O (centres undefined)	> 100 µM (inactive)	> 100 µM (inactive)	> 100 µM (inactive)	> 100 µM (inactive)	62.4 µM (inactive)	> 100 µM (inactive)	> 100	> 100 µM (inactive)	> 100 µM (inactive)	> 100 µM (inactive)	> 100 µM (inactive)	> 100 µM (inactive)	> 100 µM (inactive)	> 100 µM (inactive)	–	> 100 µM (inactive)	> 100 µM (inactive)	> 100 µM (inactive)	> 100 µM (inactive)	> 100 µM (inactive)
c1cc2nsnc2c2c[nH]cc12	61.5 µM (inactive)	61.4 µM (inactive)	–	> 100 µM (inactive)	34.7 µM (inactive)	> 100 µM (inactive)	99.5	21 µM (inactive)	49.1 µM (inactive)	86.3 µM (inactive)	> 100 µM (inactive)	> 100 µM (inactive)	96.6 µM (inactive)	42.9 µM (inactive)	> 100 µM (inactive)	43.7 µM (inactive)	> 100 µM (inactive)	56.6 µM (inactive)	> 100 µM (inactive)	25.5 µM (inactive)
COc1cc(/C=C2\N=C(c3ccccc3)N(/N=C/c3cc4cc(C)ccc4nc3Cl)C2=O)ccc1O	31.6 µM (inactive)	37.2 µM (inactive)	35.7 µM (inactive)	–	25.1 µM (inactive)	12.9 µM (inactive)	40.1	56.1 µM (inactive)	45.8 µM (inactive)	30.5 µM (inactive)	48.1 µM (inactive)	16.2 µM (inactive)	18.9 µM (inactive)	37.7 µM (inactive)	> 100 µM (inactive)	30.1 µM (inactive)	49.8 µM (inactive)	27.8 µM (inactive)	37.2 µM (inactive)	32.5 µM (inactive)
COc1ccccc1N1C(=O)CSC1c1cccc(Oc2ccccc2)c1 (centres undefined)	19.7 µM (inactive)	16.3 µM (inactive)	17 µM (inactive)	20.8 µM (inactive)	18.2 µM (inactive)	15.8 µM (inactive)	17.2	18.3 µM (inactive)	32.8 µM (inactive)	18.2 µM (inactive)	19.4 µM (inactive)	26.1 µM (inactive)	24.8 µM (inactive)	14.9 µM (inactive)	17.8 µM (inactive)	–	16.7 µM (inactive)	16.4 µM (inactive)	20.1 µM (inactive)	17.8 µM (inactive)
O=C(O)CCCc1nc2c(n1Cc1ccccc1)C(=O)c1ccccc1C2=O	36.6 µM (inactive)	–	54.6 µM (inactive)	31.6 µM (inactive)	29.6 µM (inactive)	14.9 µM (inactive)	52.4	60.5 µM (inactive)	42.7 µM (inactive)	34.8 µM (inactive)	25.8 µM (inactive)	5.19 µM (inactive)	44.7 µM (inactive)	17.2 µM (inactive)	> 100 µM (inactive)	59.3 µM (inactive)	25 µM (inactive)	47.9 µM (inactive)	43.7 µM (inactive)	> 100 µM (inactive)
C=C1c2[nH]c3ccccc3c2C2C(CC)C1CCN2C (centres undefined)	42.2 µM (inactive)	61.1 µM (inactive)	79.3 µM (inactive)	> 100 µM (inactive)	56.1 µM (inactive)	> 100 µM (inactive)	90.8	> 100 µM (inactive)	–	82 µM (inactive)	55.8 µM (inactive)	54.6 µM (inactive)	34.8 µM (inactive)	48.4 µM (inactive)	29.5 µM (inactive)	15.2 µM (inactive)	26 µM (inactive)	48.4 µM (inactive)	> 100 µM (inactive)	> 100 µM (inactive)
CCSCCC(N)C(=O)O (centres undefined)	> 100 µM (inactive)	> 100 µM (inactive)	> 100 µM (inactive)	> 100 µM (inactive)	> 100 µM (inactive)	> 100 µM (inactive)	> 100	> 100 µM (inactive)	> 100 µM (inactive)	> 100 µM (inactive)	> 100 µM (inactive)	–	> 100 µM (inactive)	> 100 µM (inactive)	> 100 µM (inactive)	> 100 µM (inactive)	> 100 µM (inactive)	> 100 µM (inactive)	> 100 µM (inactive)	> 100 µM (inactive)
O=C1CCCC(=O)N1n1c(Cc2ccccc2)n[nH]c1=O	> 100 µM (inactive)	> 100 µM (inactive)	> 100 µM (inactive)	> 100 µM (inactive)	> 100 µM (inactive)	> 100 µM (inactive)	> 100	> 100 µM (inactive)	> 100 µM (inactive)	–	> 100 µM (inactive)	> 100 µM (inactive)	> 100 µM (inactive)	> 100 µM (inactive)	> 100 µM (inactive)	> 100 µM (inactive)	> 100 µM (inactive)	> 100 µM (inactive)	> 100 µM (inactive)	> 100 µM (inactive)
CC(=O)c1c(CO[N+](=O)[O-])[n+]([O-])c2ccccc2[n+]1[O-]	> 100 µM (inactive)	68.1 µM (inactive)	33.8 µM (inactive)	45.5 µM (inactive)	74.3 µM (inactive)	> 100 µM (inactive)	30.8	61.4 µM (inactive)	> 100 µM (inactive)	> 100 µM (inactive)	> 100 µM (inactive)	37.9 µM (inactive)	43.9 µM (inactive)	35.7 µM (inactive)	72.1 µM (inactive)	41.5 µM (inactive)	> 100 µM (inactive)	53.7 µM (inactive)	–	70.6 µM (inactive)
OCCN(CCO)c1ccc2c(c1)Cc1ccccc1-2	46.8 µM (inactive)	35.7 µM (inactive)	49.3 µM (inactive)	51.4 µM (inactive)	24.5 µM (inactive)	26.7 µM (inactive)	43.4	13.5 µM (inactive)	34 µM (inactive)	19.7 µM (inactive)	88.3 µM (inactive)	> 100 µM (inactive)	29.6 µM (inactive)	37.3 µM (inactive)	64.3 µM (inactive)	–	31 µM (inactive)	34 µM (inactive)	38.3 µM (inactive)	31.9 µM (inactive)
CC(=O)OC12c3ccccc3-c3ccccc3C1C(C(=O)O)C2(Cl)C(=O)O (centres undefined)	> 10 µM (inactive)	> 10 µM (inactive)	> 10 µM (inactive)	> 10 µM (inactive)	> 10 µM (inactive)	> 10 µM (inactive)	> 10	> 10 µM (inactive)	> 10 µM (inactive)	> 10 µM (inactive)	> 10 µM (inactive)	> 10 µM (inactive)	> 10 µM (inactive)	–	> 10 µM (inactive)	> 10 µM (inactive)	> 10 µM (inactive)	> 10 µM (inactive)	> 10 µM (inactive)	> 10 µM (inactive)
Oc1ccc(C(O)C2CCCCN2)cc1O (centres undefined) [RIMITEROL HYDROBROMIDE]	> 100 µM (inactive)	> 100 µM (inactive)	> 100 µM (inactive)	> 100 µM (inactive)	> 100 µM (inactive)	> 100 µM (inactive)	> 100	23.8 µM (inactive)	> 100 µM (inactive)	> 100 µM (inactive)	> 100 µM (inactive)	–	71 µM (inactive)	> 100 µM (inactive)	> 100 µM (inactive)	> 100 µM (inactive)	57.4 µM (inactive)	> 100 µM (inactive)	> 100 µM (inactive)	32.1 µM (inactive)
